Results: patent US20240190890A1, “MK2 INHIBITORS AND USES THEREOF” (Bristol-Myers Squibb Company, priority 2022, published 2024)

Molecular target: p38a activated, mitogen-activated protein kinase-activated protein kinase 2 (MAPKAP-K2 or MK2) enzyme (Homo sapiens (Human), UniProt P49137)
Assay: MK2 Omnia continuous-read kinase assay for compound potency
Assay type: biochemical
Conditions: [MK-2]=0.4 nM, [ATP]=10 μM, [ST3-Sox]=10 μM; room temperature
Description: Mitogen-Activated Protein Kinase-Activated Protein Kinase 2 Omnia® Assay for Compound Potency Assessment:
The protocol below describes a continuous-read kinase assay optimized to measure potency of compounds against p38a activated, mitogen-activated protein kinase-activated protein kinase 2 (MAPKAP-K2 or MK2) enzyme. Further details of this assay are described by Life Technologies, Carlsbad, CA on their website at the following URL: http://tools.lifetechnologies.com/content/sfs/manuals/omnia_kinase_assay_man.pdf. • [Reagent] used: • [MK-2]=0.4 nM, • [ATP]=10 μM and • [ST3-Sox]=10 μM (ATP^appKM=10 μM)
Briefly, 10× stock solutions of MK2 (PV3317, from Life Technologies), 1.13X ATP (AS001A), and Sox conjugated peptide substrate, S/T3-Sox, (KZN1031) were prepared in 1× kinase reaction buffer consisting of 20 mM Tris, pH 7.5, 5 mM MgCl2, 1 mM EGTA, 5 mM β-glycerophosphate, 5% glycerol (10× stock, KB001A) and 0.2 mM DTT (DS001A). Enzyme solution (5 μL) was added to each of DMSO ([…]) or serially diluted test compounds prepared in DMSO in a Corning (#3574) 384-well, white, non-binding surface microtiter plate (Corning, NY). Kinase reactions were started with the addition of 45 μL of the ATP-peptide substrate S/T3-Sox mix and monitored every 71 seconds for 120 minutes at λex360/λem485 in a Synergy H4 plate reader from BioTek (Winooski, VT) at room temperature.
Background signals from the no enzyme control wells were subtracted from all progress curves. The initial linear portions of the net progress curves were fit according to a linear equation to yield the slope and percentage of inhibition (% inhibition) at each compound concentration. The net progress curves obtained during the first two hours of reactions were also fit according to an ascending single-exponential equation (Eq. 1) to yield kobs values at each compound concentration. Plots of % Inhibition versus inhibitor concentrations were fit according to a dose-response equation (Eq. 2) to generate IC50 and Hill slope values while plots of kobs versus inhibitor concentration were fit according to Equation 3 (Eq. 3) to generate apparent kinact/K1 values using the GraphPad PRISM software (Version 6.00; GraphPad San Diego, CA).
where F is the fluorescence intensity from the plate reader, V0 is a constant reflecting the relationship between the instrument readout and product concentration, t is time, e is Euler's number, and kobs is the observed inactivation rate constant.
where % Inhibition is percentage of inhibition, IC50 is half maximal inhibitory concentration, [I] is the inhibitor concentration, and n is the Hill slope.
where kobs is the observed inactivation rate constant, kinact is the apparent inactivation rate constant, K1 is the apparent inhibition constant, and [I] is the inhibitor concentration. […] Potency results for the compounds tested are shown in Table 4 in the column entitled “MK2 IC50.”

Chain of p38a activated, mitogen-activated protein kinase-activated protein kinase 2 (MAPKAP-K2 or MK2) enzyme (P49137 whole entry): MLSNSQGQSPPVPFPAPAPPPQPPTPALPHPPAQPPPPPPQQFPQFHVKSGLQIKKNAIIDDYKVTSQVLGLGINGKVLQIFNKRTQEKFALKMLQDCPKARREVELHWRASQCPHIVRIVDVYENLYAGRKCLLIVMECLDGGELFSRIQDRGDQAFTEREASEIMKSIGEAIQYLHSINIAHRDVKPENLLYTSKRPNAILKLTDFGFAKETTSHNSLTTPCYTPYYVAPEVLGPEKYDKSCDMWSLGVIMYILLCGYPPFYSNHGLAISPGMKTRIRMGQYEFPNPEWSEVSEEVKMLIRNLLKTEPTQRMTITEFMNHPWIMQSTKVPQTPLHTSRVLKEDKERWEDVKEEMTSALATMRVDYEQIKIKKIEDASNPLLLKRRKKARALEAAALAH

Row | Molecule | IC50 [nM]
1 | C=Cc1nc(Cl)c(Cl)n1-c1ccc2c(ccc3sc4c(c32)NC[C@@H](C)NC4=O)n1 [Example I-251, (R)-3-(4,5-dichloro-2-vinyl-1H-imidazol-1-yl)-10-methyl-9,10,11,12-tetrahydro-8H-[1,4]diazepino[5′,6′:4,5]thieno[3,2-f]quinolin-8-one] | 192
2 | C[C@@H]1CNc2c(sc3ccc4nc(-c5ccnc(Cl)c5F)ccc4c23)C(=O)N1 [Example I-221, (R)-3-(2-chloro-3-fluoropyridin-4-yl)-10-methyl-9,10,11,12-tetrahydro-8H-[1,4]diazepino[5′,6′:4,5]thieno[3,2-f]quinolin-8-one] | 212
3 | C=Cc1cc(-c2ccc3c(ccc4sc5c(c43)NC[C@@H](C)NC5=O)n2)c(OC(F)(F)F)cn1 [Example I-245, (R)-10-methyl-3-(5-(trifluoromethoxy)-2-vinylpyridin-4-yl)-9,10,11,12-tetrahydro-8H-[1,4]diazepino[5′,6′:4,5]thieno[3,2-f]quinolin-8-one] | 74
4 | C#Cc1cc(-c2ccc3c(ccc4sc5c(c43)NC[C@@H](C)NC5=O)n2)c(OCCN2CCCC2)nn1 [Example I-120, (R)-3-(6-ethynyl-3-(2-(pyrrolidin-1-yl)ethoxy)pyridazin-4-yl)-10-methyl-9,10,11,12-tetrahydro-8H-[1,4]diazepino[5′,6′:4,5]thieno[3,2-f]quinolin-8-one] | 45
5 | C[C@@H]1CNc2c(sc3ccc4nc(-n5cnc(Cl)n5)ccc4c23)C(=O)N1 [Example I-210, (R)-3-(3-chloro-1H-1,2,4-triazol-1-yl)-10-methyl-9,10,11,12-tetrahydro-8H-[1,4]diazepino[5′,6′:4,5]thieno[3,2-f]quinolin-8-one] | 91
6 | C[C@@H]1CNc2c(sc3ccc4nc(-n5ccc(Cl)n5)ccc4c23)C(=O)N1 [Example I-165, (R)-3-(3-chloro-1H-pyrazol-1-yl)-10-methyl-9,10,11,12-tetrahydro-8H-[1,4]diazepino[5′,6′:4,5]thieno[3,2-f]quinolin-8-one] | 81
7 | C#Cc1nccc(-c2ccc3c(ccc4sc5c(c43)NC[C@@H](C)NC5=O)n2)n1 [Example I-40, (R)-3-(2-ethynylpyrimidin-4-yl)-10-methyl-9,10,11,12-tetrahydro-8H-[1,4]diazepino[5′,6′:4,5]thieno[3,2-f]quinolin-8-one] | 25
8 | C=C(C)c1ncc(COCC)c(-c2ccc3c(ccc4sc5c(c43)NC[C@@H](C)NC5=O)n2)n1 [Example I-50, (R)-3-(5-(ethoxymethyl)-2-(prop-1-en-2-yl)pyrimidin-4-yl)-10-methyl-9,10,11,12-tetrahydro-8H-[1,4]diazepino[5′,6′:4,5]thieno[3,2-f]quinolin-8-one] | 1000
9 | COc1nnc(/C=C/CN(C)C)cc1-c1ccc2c(ccc3sc4c(c32)NC[C@@H](C)NC4=O)n1 [Example I-145, (R,E)-3-(6-(3-(dimethylamino)prop-1-en-1-yl)-3-methoxypyridazin-4-yl)-10-methyl-9,10,11,12-tetrahydro-8H-[1,4]diazepino[5′,6′:4,5]thieno[3,2-f]quinolin-8-one] | 273
10 | (R)-10-methyl-3-(2-(4-methylpiperazin-1-yl)-6-vinylpyridin-4-yl)-9,10,11,12-tetrahydro-8H-[1,4]diazepino[5′,6′:4,5]thieno[3,2-f]quinolin- [Example I-96] | 10
11 | C=Cc1cc(-c2ccc3c(ccc4sc5c(c43)NC[C@@H](C)NC5=O)n2)cc(CN2CCC(F)(F)CC2)n1 [Example I-123, (R)-3-(2-((4,4-difluoropiperidin-1-yl)methyl)-6-vinylpyridin-4-yl)-10-methyl-9,10,11,12-tetrahydro-8H-[1,4]diazepino[5′,6′:4,5]thieno[3,2-f]quinolin-8-one] | 31
12 | C=Cc1cc(-c2ccc3c(ccc4sc5c(c43)NC[C@@H](C)NC5=O)n2)cc(Cl)n1 [Example I-72, (R)-3-(2-chloro-6-vinylpyridin-4-yl)-10-methyl-9,10,11,12-tetrahydro-8H-[1,4]diazepino[5′,6′:4,5]thieno[3,2-f]quinolin-8-one] | 58
13 | C[C@@H]1CNc2c(sc3ccc4nc(-c5cc(Cl)nc(COC6CCOCC6)n5)ccc4c23)C(=O)N1 [Example I-23, (R)-3-(6-chloro-2-(((tetrahydro-2H-pyran-4-yl)oxy)methyl)pyrimidin-4-yl)-10-methyl-9,10,11,12-tetrahydro-8H-[1,4]diazepino[5′,6′:4,5]thieno[3,2-f]quinolin-8-one] | 487

Further molecules by falling IC50, results first:

Row | IC50 [nM] | Molecule
14 | 17 | C#Cc1cc(-c2ccc3c(ccc4sc5c(c43)NC[C@@H](C)NC5=O)n2)c(C(F)F)cn1 [Example I-92, (R)-3-(5-(difluoromethyl)-2-ethynylpyridin-4-yl)-10-methyl-9,10,11,12-tetrahydro-8H-[1,4]diazepino[5′,6′:4,5]thieno[3,2-f]quinolin-8-one]
15 | 16 | C[C@@H]1CNc2c(sc3ccc4nc(-n5ccnc5C#N)ccc4c23)C(=O)N1 [Example I-246, (R)-1-(10-methyl-8-oxo-9,10,11,12-tetrahydro-8H-[1,4]diazepino[5′,6′:4,5]thieno[3,2-f]quinolin-3-yl)-1H-imidazole-2-carbonitrile]
16 | 15 | [2H]C([2H])([2H])C(O)c1cnc(C=C)cc1-c1ccc2c(ccc3sc4c(c32)NC[C@@H](C)NC4=O)n1 (stereo partly drawn) [Example I-259, (10R)-3-(5-(1-hydroxyethyl-2,2,2-d3)-2-vinylpyridin-4-yl)-10-methyl-9,10,11,12-tetrahydro-8H-[1,4]diazepino[5′,6′:4,5]thieno[3,2-f]quinolin-8-one]
17 | 15 | C=Cc1ncc(-c2ccc3c(ccc4sc5c(c43)NC[C@@H](C)NC5=O)n2)s1 [Example I-209, (R)-10-methyl-3-(2-vinylthiazol-5-yl)-9,10,11,12-tetrahydro-8H-[1,4]diazepino[5′,6′:4,5]thieno[3,2-f]quinolin-8-one]
18 | 12 | C[C@@H]1CNc2c(sc3ccc4nc(-c5cc(Cl)nc(COC6CCNCC6)n5)ccc4c23)C(=O)N1 [Example I-14, (R)-3-(6-chloro-2-((piperidin-4-yloxy)methyl)pyrimidin-4-yl)-10-methyl-9,10,11,12-tetrahydro-8H-[1,4]diazepino[5′,6′:4,5]thieno[3,2-f]quinolin-8-one]
19 | 9 | [2H]C([2H])([2H])c1cnc(C=C)cc1-c1ccc2c(ccc3sc4c(c32)NC[C@@H](C)NC4=O)n1 [Example I-142, (R)-10-methyl-3-(5-(methyl-d3)-2-vinylpyridin-4-yl)-9,10,11,12-tetrahydro-8H-[1,4]diazepino[5′,6′:4,5]thieno[3,2-f]quinolin-8-one]
20 | 6 | C=C(CN1CCCC1)c1cc(-c2ccc3c(ccc4sc5c(c43)NC[C@@H](C)NC5=O)n2)ccn1 [Example I-116, (R)-10-methyl-3-(2-(3-(pyrrolidin-1-yl)prop-1-en-2-yl)pyridin-4-yl)-9,10,11,12-tetrahydro-8H-[1,4]diazepino[5′,6′:4,5]thieno[3,2-f]quinolin-8-one]
21 | 5 | C=Cc1cc(-c2ccc3c(ccc4sc5c(c43)NC[C@@H](C)NC5=O)n2)c(C)c(C)n1 [Example I-194, (R)-3-(2,3-dimethyl-6-vinylpyridin-4-yl)-10-methyl-9,10,11,12-tetrahydro-8H-[1,4]diazepino[5′,6′:4,5]thieno[3,2-f]quinolin-8-one]
22 | 4 | C[C@@H]1CNc2c(sc3ccc4nc(-c5cc(Cl)nc(C#CC(C)(C)N)n5)ccc4c23)C(=O)N1 [Example I-64, (R)-3-(2-(3-amino-3-methylbut-1-yn-1-yl)-6-chloropyrimidin-4-yl)-10-methyl-9,10,11,12-tetrahydro-8H-[1,4]diazepino[5′,6′:4,5]thieno[3,2-f]quinolin-8-one]
23 | 1 | C=Cc1cc(-c2ccc3c(ccc4sc5c(c43)NC[C@@H](C)NC5=O)n2)nc(CO)n1 [Example I-76, (R)-3-(2-(hydroxymethyl)-6-vinylpyrimidin-4-yl)-10-methyl-9,10,11,12-tetrahydro-8H-[1,4]diazepino[5′,6′:4,5]thieno[3,2-f]quinolin-8-one]
